Data reported in patent publication US20260174677A1, “METHODS OF TREATING INSULIN RESISTANCE AND ASSOCIATED DISORDERS” (The University of Melboune, priority 2022, published 2026).

How the values were obtained:
Type in all cases: in vivo, mouse
[1] = I.C.V. fluorosamine in obese mice: metabolic assessment; conditions: I.C.V. daily for 10 days
Procedure: (§1) Metabolic measurements were undertaken in the Melbourne Mouse Metabolic Phenotyping Platform (The University of Melbourne, Australia). Glucose tolerance tests were performed on 6 h fasted conscious mice respectively by injecting D-glucose (2 mg/g of lean body mass and 1 mg/g lean mass for db/db and HFHS+STZ mice) into the peritoneal cavity and measuring glucose in tail blood immediately before and at 15, 30, 45, 60, 90 and 120 min after injection using an Accu-Check glucometer (Roche, Germany). The areas under glucose excursion curves were determined and expressed as mmol/1×min. Fasted (12 h fast) plasma insulin or glucose levels were determined using a Rat/Mouse Insulin ELISA (EZRMI-13K, Merck Millipore, CA) or an Accu-Check glucometer respectively. The HOMA-IR was calculated using the equation [(glucose×insulin)/405]. Adiposity was measured using TD-NMR minispec (Bruker Optics Inc., Billerica, MA).
Mice were acclimated for 24 h and then monitored for 48 h in an environmentally controlled Promethion Metabolic Screening System (Sable Systems International, NV) fitted with indirect open circuit calorimetry, food consumption and activity monitors to measure activity, caloric intake and energy expenditure. Respiratory quotients were calculated as the ratio of CO2 production over O2 consumption respiratory exchange ratio and energy expenditure was calculated using the Weir equation (Kcal h-1=60×(0.003941×VO2+0.001106×VCO2). To account for difference in body mass/composition energy expenditure was analysed and adjusted using ANCOVA using scripts available at the National Mouse Metabolic Phenotyping Centers (MMPC, Nashville, TN, USA) Energy Expenditure Analysis Page (https://www.mmpc.org/shared/regression.aspx).
(§2) Under isoflurane anaesthetic 12-week HFHS fed C57BL/6J or AgRP-Cas9 mice were implanted stereotaxically with guide cannulas into the right lateral ventricle (0.2 mm posterior, 1.0 mm lateral from bregma). Guide cannula was positioned 1.3 mm above the injection site (1 mm ventral to the surface of the skull). AgRP-Cas9 mice were treated with either AAV-gScrambled or AAV-gIR and underwent guide cannula placement 7 days post AAV administration. Mice were administered I.C.V. vehicle (ddH2O), fluorosamine (100 μg/animal/day or 250 μgl/animal/day) in a volume of 2 μl/animal and all compounds were delivered approximately 1 h before lights off […].

[2] = Intranasal PZ6005 in obese mice: I.P. GTT, ITT and fasting glucose
Procedure: as §1
Conscious mice were restrained by scruffing and inverted parallel to the floor with the chin at ˜180-degree angle with the neck. Using a 10 μL tip, a pipettor was loaded with 5 μl of vehicle (ddH2O) or fluorosamine (1 mg/animal in 20 μl or 5 mg/animal in 20 μl). The tip of the filled pipettor was placed near the left nostril at a 45-degree angle, and the drug was ejected to form a small 5 μl droplet at tip for the mouse to inhale. Immediately after the mouse inhaled the first droplet the remaining solution was ejected to form another small droplet for the mouse to inhale through the same nostril. The mouse was held in this position for 15 seconds before the procedure was repeated in the right nostril. The mouse was returned to the cage for 2 minutes and the process was repeated so that each mouse received four droplets of 5 μl each, delivering a total of 20 μl of solution. All drugs were administered delivered approximately 1 h before lights off […].
Obese mice intranasally receiving either vehicle or PZ6005 (1 or 5 mg/animal/day) were subjected to I.P. GTT after 6 hrs fasting period and I.P. insulin tolerance test (ITT) after 4 hrs fasting period.

[3] = I.C.V. fluorosamine: hyperinsulinemic-euglycemic clamps in weight matched obese mice; conditions: I.C.V. daily for 3 days
Procedure: For hyperinsulinemic-euglycemic clamps, mice were anesthetised under isoflurane and the right jugular vein was catheterised for infusions, as described previously by Dodd et al., 2018. Catheters were attached to an implant button (BMSW25, RWD Life Sciences, Shenzhen, China). Implant buttons were capped allowing for group mousing of mice and catheters were kept patent by flushing daily with 40 μL saline containing 200 units/mL heparin. On the day of the experiment, food was removed at 7:00 A.M. After 3.5 h fasting, a primed (1 min, 1.25 uCi/min) continuous infusion (0.05 uCi/min) of [3-3H]glucose (NET331A001MC, PerkinElmer, MA) was administered to measure whole-body glucose turnover, as described previously by Dodd et al., 2018. 90 minutes later, mice received a 40 mU/Kg insulin bolus over 10 mins which was followed by continuous insulin infusion (4 mU/kg/min in gelofusine). Euglycemia (˜8-10 mM blood glucose) was maintained by a variable infusion of a 30% glucose solution.
Tail blood samples were collected during steady-state conditions (Ra=Rd) and at 80, 90, 100, 110, and 120 min for determination of Rd and Ra, as described above. At 120 mins, a 13 uCi bolus of [^14C]-2-deoxy-D-glucose (NEC495A250UC, PerkinElmer, MA) was injected into the jugular vein, and blood was sampled at 122, 125, 135, 145, and 155 min. […]

[4] = tested on: insulin induced p-AKT signalling in the ARC; assay: I.C.V. fluorosamine in obese mice: insulin-induced p-AKT in the ARC; conditions: following 10 days of treatment
Procedure: as §2

Q: Which results are given for `CC(=O)NC1C(OC(C)=O)OC(COC(C)=O)[C@@H](F)C1OC(C)=O` (some centres unmarked) [fluorosamine, per-O-acetylated-4-F-N-acetylglucosamine]?
A: adiposity [1]: reduced adiposity; body weight [1]: promoted weight loss; energy expenditure [1]: enhanced energy expenditure independently of ambulatory activity; food intake [1]: supressed food intake through enhanced satiety; glucose tolerance [1]: improved glucose tolerance; glucose clearance rate vs 1 mg treatment group and controls ([2]; I.N. 5 mg, after 60 mins of I.P. glucose in GTT and after 0 mins of I.P. insulin): significantly higher glucose clearance rate; insulin sensitivity (ITT) ([2]; I.N. 1 or 5 mg/animal/day, obese mice): enhanced insulin sensitivity; glucose tolerance (glucose excursion in GTT and ITT) ([2]; I.N. 1 or 5 mg/animal/day, obese mice, vs control littermates): better glucose tolerance than control littermates; fasting (12 hrs) glucose level ([2]; both doses of intranasal treatment (1 or 5 mg/animal/day)): Reduction; whole-body insulin sensitivity (GIR) in clamp [3]: enhancement of whole-body insulin sensitivity; insulin induced p-AKT signalling in the ARC [4]: enhanced insulin induced p-AKT signalling in the ARC
